The structures appear in SMILES notation. Where a name gives a salt, the structure may show the parent alone.

What is called melting point is the temperature of the solid-liquid transition. The molecule `O=C(N[C@H]1CCN(CCc2ccccc2)C1)NC12CC3CC(CC(C3)C1)C2` (as salt: hydrochloride) (hydrate or solvate) [Example 51, (S)-1-(1-adamantyl)-3-(1-(2-phenylethyl)pyrrolidin-3-yl)urea] had a melting point of 201 to 202 °C.
Take `O=C(N[C@H]1CCN(C[C@@H](O)c2ccccc2)C1)C12CC3CC(CC(C3)C1)C2` (as salt: hydrochloride) (hydrate or solvate) [Example 71, (S)-N-(1-((S)-2-hydroxy-2-phenylethyl)pyrrolidin-3-yl)-1-adamantanecarboxamide]: the melting point lay within 149 to 151 °C.
As for `CN(C(=O)C12CC3CC(CC(C3)C1)C2)[C@@H]1CCN(CCc2ccc(F)cc2)C1` (as salt: hydrochloride) (hydrate or solvate) [Example 68, (R)-N-methyl-N-(1-(2-(4-fluorophenyl)ethyl)pyrrolidin-3-yl)-1-adamantanecarboxamide], the figure is 264 to 265 °C; as for `O=C(N[C@H]1CCN(CCCc2ccc(Cl)cc2)C1)C12CC3CC(CC(C3)C1)C2` [Example 16, (S)-N-(1-(3-(4-chlorophenyl)propyl)pyrrolidin-3-yl)-1-adamantanecarboxamide], 117 to 119 °C; as for `O=C(N[C@H]1CCN(CCc2ccc(Cl)cc2)C1)C12CC3CC(CC(C3)C1)C2` [Example 3, (S)-N-(1-(2-(4-chlorophenyl)ethyl)pyrrolidin-3-yl)-1-adamantanecarboxamide], 94 to 95 °C.
In turn, `O=C(N[C@H]1CCN(CCc2ccccc2)C1)C(c1ccccc1)c1ccccc1` (as salt: oxalate) [Example 23, (S)-N-(1-(2-phenylethyl)pyrrolidin-3-yl)diphenylacetamide] showed a melting point of 191 to 192 °C.
As for `O=C(N[C@H]1CCN(CCc2ccc(F)cc2)C1)n1c2ccccc2c2ccccc21` [Example 72, (S)-N-(1-(2-(4-fluorophenyl)ethyl)pyrrolidin-3-yl)carbazole-9-carboxamide], the figure is 107 to 108 °C.
As for `O=C(N[C@H]1CCN(CCCc2ccc(F)cc2)C1)C12CC3CC(CC(C3)C1)C2` [Example 15, (S)-N-(1-(3-(4-fluorophenyl)propyl)pyrrolidin-3-yl)-1-adamantanecarboxamide], the figure is 114 to 115 °C.
As for `O=C(N[C@H]1CCN(CCc2ccccc2)C1)C12CC3CC(CC(C3)C1)C2` [Example 1, (S)-N-(1-(2-phenylethyl)pyrrolidin-3-yl)-1-adamantanecarboxamide], the figure is 119 to 121 °C; as for `O=C(N[C@H]1CCN(CCc2ccc(F)cc2)C1)C(c1ccccc1F)c1ccccc1F` [Example 74, (S)-2,2-bis(2-fluorophenyl)-N-(1-(2-(4-fluorophenyl)ethyl)pyrrolidin-3-yl)acetamide], 107 to 108 °C.
Consider `O=C(N[C@H]1CCN(CCCCc2ccccc2)C1)C12CC3CC(CC(C3)C1)C2` [Example 17, (S)-N-(1-(4-phenylbutyl)pyrrolidin-3-yl)-1-adamantanecarboxamide], for which the melting point is 82 to 84 °C.
As for `O=C(N[C@H]1CCN(CCc2ccc(F)cc2)C1)C(C1CCCCC1)C1CCCCC1` [Example 26, (S)-N-(1-(2-(4-fluorophenyl)ethyl)pyrrolidin-3-yl)dicyclohexylacetamide], the figure is 122 to 124 °C.
As for `COc1ccc(CCN2CC[C@H](NC(=O)C34CC5CC(CC(C5)C3)C4)C2)cc1` [Example 4, (S)-N-(1-(2-(4-methoxyphenyl)ethyl)pyrrolidin-3-yl)-1-adamantanecarboxamide], the figure is 81 to 83 °C; as for `O=C(N[C@H]1CCN(CC2Cc3ccccc3C2)C1)C12CC3CC(CC(C3)C1)C2` (as salt: hydrochloride) (hydrate or solvate) [Example 18, (S)-N-(1-((2,3-dihydroinden-2-yl)methyl)pyrrolidin-3-yl)-1-adamantanecarboxamide], 241 to 243 °C.
As for `O=C(N[C@H]1CCN(CCc2ccc(F)cc2)C1)C(c1cccs1)c1cccs1` [Example 73, (S)-2,2-di(2-thienyl)-N-(1-(2-(4-fluorophenyl)ethyl)pyrrolidin-3-yl)acetamide], the figure is 96 to 98 °C; as for `O=C(N[C@@H]1CCN(CCc2ccccc2)C1)C12CC3CC(CC(C3)C1)C2` [Example 63, (R)-N-(1-(2-phenylethyl)pyrrolidin-3-yl)-1-adamantanecarboxamide], 118 to 120 °C; as for `N#Cc1ccc(CCN2CC[C@H](NC(=O)C34CC5CC(CC(C5)C3)C4)C2)cc1` [Example 6, (S)-N-(1-(2-(4-cyanophenyl)ethyl)pyrrolidin-3-yl)-1-adamantanecarboxamide], 104 to 105 °C.
Regarding `O=C(N[C@H]1CCN(CCc2cccc(C(F)(F)F)c2)C1)C12CC3CC(CC(C3)C1)C2` (as salt: hydrochloride) (hydrate or solvate) [Example 11, (S)-N-(1-(2-(3-trifluoromethylphenyl)ethyl)pyrrolidin-3-yl)-1-adamantanecarboxamide], the melting point lay in the range of 160 to 163 °C.
As for `O=C(Cc1ccccc1C1CCCC1)N[C@H]1CCN(CCc2ccccc2)C1` [Example 27, N-((S)-1-(2-phenylethyl)pyrrolidin-3-yl)-2-cyclopentylphenylacetamide], the figure is 117 to 119 °C; as for `O=C(N[C@H]1CCN(CCCc2ccccc2)C1)C12CC3CC(CC(C3)C1)C2` [Example 14, (S)-N-(1-(3-phenylpropyl)pyrrolidin-3-yl)-1-adamantanecarboxamide], 118 to 120 °C; as for `O=C(N[C@H]1CCN(CCc2ccc(F)cc2)C1)C(c1ccccc1)c1ccccc1` (as salt: oxalate) (hydrate or solvate) [Example 24, (S)-N-(1-(2-(4-fluorophenyl)ethyl)pyrrolidin-3-yl)diphenylacetamide], 156 to 158 °C.
Molecule `O=C(N[C@H]1CCN(CCc2ccccc2F)C1)C12CC3CC(CC(C3)C1)C2` [Example 10, (S)-N-(1-(2-(2-fluorophenyl)ethyl)pyrrolidin-3-yl)-1-adamantanecarboxamide] registered a melting point of 106 to 108 °C.
In turn, `CN(C(=O)C12CC3CC(CC(C3)C1)C2)[C@H]1CCN(CCc2cccc(F)c2)C1` (as salt: hydrochloride) (hydrate or solvate) [Example 65, (S)-N-methyl-N-(1-(2-(3-fluorophenyl)ethyl)pyrrolidin-3-yl)-1-adamantanecarboxamide] came in with a melting point of 252 to 253 °C.
As for `O=C(N[C@H]1CCN(C2Cc3ccccc3C2)C1)C12CC3CC(CC(C3)C1)C2` (as salt: hydrochloride) (hydrate or solvate) [Example 22, (S)-N-(1-(2,3-dihydroinden-2-yl)pyrrolidin-3-yl)-1-adamantanecarboxamide], the figure is 278 to 279 °C.
With `O=C(N[C@H]1CCN(CCc2ccc(C(F)(F)F)cc2)C1)C12CC3CC(CC(C3)C1)C2` (as salt: hydrochloride) (hydrate or solvate) [Example 5, (S)-N-(1-(2-(4-trifluoromethylphenyl)ethyl)pyrrolidin-3-yl)-1-adamantanecarboxamide], the melting point was 214 to 215 °C.
As for `CN(C(=O)C12CC3CC(CC(C3)C1)C2)[C@H]1CCN(CCc2ccccc2F)C1` (as salt: hydrochloride) [Example 66, (S)-N-methyl-N-(1-(2-(2-fluorophenyl)ethyl)pyrrolidin-3-yl)-1-adamantanecarboxamide], the figure is 241 to 242 °C; as for `O=C(N[C@H]1CCN(CC2CCCc3ccccc32)C1)C12CC3CC(CC(C3)C1)C2` (stereo partly drawn) (as salt: hydrochloride) (hydrate or solvate) [Example 20, (S)-N-(1-((1,2,3,4-tetrahydronaphthalen-1-yl)methyl)pyrrolidin-3-yl)-1-adamantanecarboxamide], 140 to 142 °C.
As for `O=C(N[C@H]1CCN(CCc2ccccc2C(F)(F)F)C1)C12CC3CC(CC(C3)C1)C2` (as salt: hydrochloride) (hydrate or solvate) [Example 12, (S)-N-(1-(2-(2-trifluoromethylphenyl)ethyl)pyrrolidin-3-yl)-1-adamantanecarboxamide], the figure is 127 to 128 °C.
Regarding `O=C(NC1CCN(CCc2ccc(F)cc2)C1)N1CC2CC3CC1C[C@@H](C3)C2` (stereo partly drawn) (as salt: hydrochloride) (hydrate or solvate) [Example 69, (S)-N-(1-(2-(4-fluorophenyl)ethyl)pyrrolidin-3-yl)-(4-azatricyclo[4.3.1.1(3,8)]undecan-4-yl)carboxamide], the melting point is 110 to 113 °C (dec.).
In turn, `O=C(N[C@H]1CCN(CCc2ccc(F)cc2)C1)C1=c2ccccc2=CC=C2CC=CC=C21` [Example 36, (S)-N-(1-(2-(4-fluorophenyl)ethyl)pyrrolidin-3-yl)dibenzo[a,d]cycloheptene-5-carboxamide] came in with a melting point of 127 to 128 °C.
With `O=C(N[C@H]1CCN(C[C@H](O)c2ccccc2)C1)C12CC3CC(CC(C3)C1)C2` (as salt: hydrochloride) (hydrate or solvate) [Example 70, (S)-N-(1-((R)-2-hydroxy-2-phenylethyl)pyrrolidin-3-yl)-1-adamantanecarboxamide] the figure was 139 to 141 °C.
As for `O=C(N[C@H]1CCN(CCc2cccc(F)c2)C1)C12CC3CC(CC(C3)C1)C2` [Example 9, (S)-N-(1-(2-(3-fluorophenyl)ethyl)pyrrolidin-3-yl)-1-adamantanecarboxamide], the figure is 87 to 89 °C; as for `O=C(N[C@H]1CCN(CCc2ccc(F)cc2)C1)N(C1CCCCC1)C1CCCCC1` [Example 48, (S)-1,1-dicyclohexyl-3-(1-(2-(4-fluorophenyl)ethyl)pyrrolidin-3-yl)urea], 97 to 98 °C; as for `O=C(N[C@H]1CCN(Cc2ccccc2)C1)C12CC3CC(CC(C3)C1)C2` [Example 13, (S)-N-(1-benzylpyrrolidin-3-yl)-1-adamantanecarboxamide], 130 to 132 °C.
With `CN(C(=O)C12CC3CC(CC(C3)C1)C2)[C@H]1CCN(CCc2ccc(F)cc2)C1` (as salt: hydrochloride) (hydrate or solvate) [Example 56, (S)-N-methyl-N-(1-(2-(4-fluorophenyl)ethyl)pyrrolidin-3-yl)-1-adamantanecarboxamide] the figure was 253 to 254 °C.
